Experimental data taken from US20100029643A1 (ASTRAZENECA AB, priority 2006, published 2010).

Target: T1, Edg-1/S1P1 receptor (Homo sapiens, UniProt P21453)
T1 construct: expressed in transfected cells; host or cells: human osteogenic sarcoma U2OS cells: Edg-1 Transfluor U2OS WT Clone #37 (assay I), Edg-1 Transfluor U2OS Clone #3 (assay II)
Assay: In vitro cell based receptor activation assay - Transfluor assay (assay I or II; beta-arrestin GFP relocalization after S1P stimulation)
Settings: at 3.30 μM (run with this as top concentration)
Description: The following assays can be used to measure the effects of the compounds of the present invention as S1P1/Edg1 inhibitors.
I. In Vitro Cell Based Receptor Activation Assay-Transfluor Assay
(§1) This cell-based assay was designed to assess the ability of small molecule antagonists to inhibit activation of the GPCR S1P1 in the presence of its cognate ligand S1P. The assay used technology initially developed by Norak Biosciences (Xsira Pharmaceutical) and presently owned by Molecular Devices. A human osteogenic sarcoma (U2OS) cell line overexpressing the Edg-1/S1P1) receptor as well as a beta-arrestin/green fluorescent protein (GFP) construct hereafter termed Edg-1 Transfluor U2OS WT Clone #37 was employed.
Using a high content screening approach (Cellomics Arrayscan), receptor activity was measured by assessment of the relocalization of beta-arrestin GFP in response to stimulation of Edg-1 by SIP. Specifically, Edg-1 Transfluor U2OS WT Clone #37 cells were plated at a density of 6250 cells in 40 μL medium per well in 384 well plastic bottomed microtiter plates (BD Falcon) and incubated overnight at 37° C./5% CO2. Prior to screening, compounds were dissolved in 100% dimethyl sulfoxide (DMSO) to a final stock concentration of 10 mM. Compounds were then serially diluted at 30× final concentration in Edg-1 Transfluor cell growth medium containing […] using the Tecan Genesis instrument. These 30× plates were then diluted to 6× final concentration with Edg-1 Transfluor growth medium just prior to dosing. Cells were then dosed with 10 μL per well of 6× compound dilutions or 6% DMSO and pre-incubated for 15 minutes at room temperature. Cell plates were dosed with 10 μL per well 6× S1P Edg-1 Transfluor growth medium, then incubated for 45 minutes at 37° C./5% CO2. Final concentration in the well of DMSO was 1%, compound was IX (3-fold, 9 point IC50 dilutions starting at 100 μM final concentration), and either 375 nM or […] SIP ligand. Cell plates were then fixed by adding 50 μL per well of 5% formaldehyde in 1× Dulbecco's phosphate buffered saline (DPBS) directly and incubating for 30 minutes at room temperature in darkness. Fixative was removed and replaced with 50 μL per well of 1×DPBS, after which cells were stained with 10 μg/mL final concentration of Hoechst 33342 (Molecular Probes) for 15 minutes at room temperature in darkness. Stain was then removed from the plates and replaced with 50 μL per well of 1×DPBS using the BioTek ExL405 plate washer. Plates were then sealed and analysed on the Cellomics Arrayscan using the GPCR signalling algorithm. EC50 values were then calculated using IDBS ActivityBase software.
II. In Vitro Cell Based Receptor Activation Assay-Transfluor Assay
as §1, with “Devices (MDS Analytical Technologies).” for “Devices.”, “U2OS” for “U2OS WT”, “#3” for “#37”
Using a high content screening approach (Molecular Devices Image Express), receptor activity was measured by assessment of the relocalization of beta-aiTestin GFP in response to stimulation of Edg-1 by S1P. Specifically, Edg-1 Transfluor U2OS Clone #3 cells were plated at a density of 6250 cells in 44 μL medium per well in 384 well plastic bottomed microtiter plates (BD Falcon) and incubated overnight at 37° C./5% CO2. Prior to screening, compounds were dissolved in 100% dimethyl sulfoxide (DMSO) to a final stock concentration of 10 mM. Compounds were then serially diluted at 10× final concentration in Edg-1 Transfluor cell growth medium containing 6% DMSO using the BioMek instrument. […]

T1 sequence (P21453 whole entry): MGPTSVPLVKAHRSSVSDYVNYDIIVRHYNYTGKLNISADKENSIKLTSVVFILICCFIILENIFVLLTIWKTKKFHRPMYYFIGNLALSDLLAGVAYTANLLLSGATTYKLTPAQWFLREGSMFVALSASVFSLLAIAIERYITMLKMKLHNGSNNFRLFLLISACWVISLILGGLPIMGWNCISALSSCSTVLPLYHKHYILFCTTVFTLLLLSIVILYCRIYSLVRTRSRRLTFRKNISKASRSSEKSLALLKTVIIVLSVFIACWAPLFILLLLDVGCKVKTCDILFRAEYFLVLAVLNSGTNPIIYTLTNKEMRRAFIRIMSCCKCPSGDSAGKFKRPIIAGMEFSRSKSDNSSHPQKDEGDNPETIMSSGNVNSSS

`CCn1c([C@@H](C)NS(=O)(=O)C2=Cc3ccccc3CC2)nc2ccc(C(F)(F)F)cc21` [Example 119, M-{(1R)-1-[1-Ethyl-6-(trifluoromethyl)-1H-benzimidazol-2-yl]ethyl}-3,4-diyhydronaphthalene-2-sulfonamide] showed an inhibition at 3.3 µM of 71.7%.

Same assay, conditions: at 3.50 μM (titrated from top concentration 10 μM)

In order of rising inhibition at 3.5 µM:
1. CCn1c(C(C)(C)NS(=O)(=O)c2ccc(C#N)nc2)nc2ncccc21 [Example 177, 6-cyano-N-(2-(1-ethyl-1H-imidazo[4,5-b]pyridin-2-yl)propan-2-yl)pyridine-3-sulfonamide]  3.55%
2. CCn1c(C(C)(C)NS(=O)(=O)c2ccc(C(N)=O)nc2)nc2ncccc21 [Example 178, 5-({[1-(1-Ethyl-1H-imidazo[4,5-b]pyridin-2-yl)-1-methylethyl]amino}sulfonyl)pyridine-2-carboxamide]  8.27%
3. CCn1c(C(C)NS(=O)(=O)c2ccc(CN3CCOCC3)cc2)nc2ccc(C(F)(F)F)cc21 (stereo not drawn) [Example 130, N-(1-(1-ethyl-6-(trifluoromethyl)-1H-benzo[d]imidazol-2-yl)ethyl)-4-(morpholinomethyl)benzenesulfonamide]  10.8%
4. CCn1c([C@@H](C)NS(=O)(=O)c2ccc[n+]([O-])c2)nc2ccc(C(F)(F)F)cc21 [Example 164, (R)-3-(N-(1-(1-ethyl-6-(trifluoromethyl)-1H-benzo[d]imidazol-2-yl)ethyl)sulfamoyl)pyridine 1-oxide]  19.5%
5. CCn1c([C@@H](C)NS(=O)(=O)c2ccc(-c3ccccc3)cc2)nc2ccc(C(F)(F)F)cc21 [Example 159, (R)-N-(1-(1-Ethyl-6-(trifluoromethyl)-1H-benzo[d]imidazol-2-yl)ethyl)biphenyl-4-sulfonamide]  19.8%
6. CCn1c(C(C)(C)NS(=O)(=O)c2ccc(C#N)cc2)nc2cnc(C(F)(F)F)cc21 [Example 154, 4-Cyano-N-(2-(1-ethyl-6-(trifluoromethyl)-1H-imidazo[4,5-c]pyridin-2-yl)propan-2-yl)benzenesulfonamide]  77.3%
7. CCn1c([C@@H](C)NS(=O)(=O)c2ccc(OC(C)C)cc2)nc2ccc(C(F)(F)F)cc21 [Example 156]  80.7%
8. CCn1c(C(C)(C)NS(=O)(=O)c2ccc(C(N)=O)nc2)nc2ccc(C(F)(F)F)cc21 [Example 141, 5-(N-(2-(1-Ethyl-6-(trifluoromethyl)-1H-benzo[d]imidazol-2-yl)propan-2-yl)sulfamoyl)picolinamide]  82.6%
9. CCn1c(C(C)NS(=O)(=O)c2ccc(N)nc2)nc2ccc(C(F)(F)F)cc21 (stereo not drawn) [Example 170, 6-amino-N-(1-(1-ethyl-6-(trifluoromethyl)-1H-benzo[d]imidazol-2-yl)ethyl)pyridine-3-sulfonamide]  83.1%
10. CCn1c([C@@H](C)NS(=O)(=O)c2ccc(CC#N)cc2)nc2ccc(C(F)(F)F)cc21 [Example 167, (R)-4-(cyanomethyl)-N-(1-(1-ethyl-6-(trifluoromethyl)-1H-benzo[d]imidazol-2-yl)ethyl)benzenesulfonamide]  86%
11. CCn1c([C@@H](C)NS(=O)(=O)c2cccn2C)nc2ccc(C(F)(F)F)cc21 [Example 187, (R)—N-(1-(1-Ethyl-6-(trifluoromethyl)-1H-benzo[d]imidazol-2-yl)ethyl)-1-methyl-1H-pyrrole-2-sulfonamide]  86.2%
12. CCn1c([C@@H](C)NS(=O)(=O)c2ccc(C#N)cc2)nc2cnccc21 [Example 103, 4-Cyano-N-[(1R)-1-(1-ethyl-1H-imidazol[4,5-c]pyridin-2-yl)ethyl]benzenesulfonamide]  89.4%
13. CCn1c([C@@H](C)NS(=O)(=O)c2cncc(Cl)c2)nc2ccc(C(F)(F)F)cc21 [Example 129, R-5-chloro-N-(1-(1-ethyl-6-(trifluoromethyl)-1H-benzo[d]imidazol-2-yl)ethyl)pyridine-3-sulfonamide]  90.3%
14. CCn1c([C@@H](C)NS(=O)(=O)c2ccc(C#N)cc2)nc2cnc(OC)cc21 [Example 150, (R)-4-Cyano-N-(1-(1-ethyl-6-methoxy-1H-imidazo[4,5-c]pyridin-2-yl)ethyl)benzenesulfonamide]  91.6%
15. CCn1c([C@@H](C)NS(=O)(=O)c2ccc3c(c2)OCCN3C)nc2ccc(C(F)(F)F)cc21 [Example 43, N-{(1R)-1-[1-Ethyl-6-(trifluoromethyl)-1H-benzimidazol-2-yl]ethyl}-4-methyl-3,4-dihydro-2H-1,4-benzoxamide-7-sulfonamide]  93.3%

Same assay, conditions: at 3.55 μM

`CCn1c([C@@H](C)NS(=O)(=O)c2ccc(Cl)cc2)nc2ncc(C(F)(F)F)cc21` [Example 88, 4-Chloro-N-{(1R)-1-[1-ethyl-6-(trifluoromethyl)-1H-imidazo[4,5-b]pyridin-2-yl]ethyl}benzenesulfonamide] was tested, and the inhibition at 3.55 µM was 82.6%.

Same assay, conditions: at 3.70 μM (titrated from top concentration 100 μM)

In order of falling inhibition at 3.7 µM:
1. CCn1c([C@@H](C)NS(=O)(=O)c2ccc(Cl)cc2)nc2cccc(F)c21 [Example 60]  97.7%
2. CCn1c([C@@H](C)NS(=O)(=O)c2c(F)cc(F)cc2F)nc2ccc(C(F)(F)F)cc21 [Example 51, N-{(1R)-1-[1-Ethyl-6-(trifluoromethyl)-1H-benzimidazol-2-yl]ethyl}-2,4,6-trifluorobenzenesulfonamide]  92.8%
3. CCn1c([C@@H](C)NS(=O)(=O)c2ccsc2)nc2ccc(C(F)(F)F)cc21 [Example 47, N-{(1R)-1-[1-Ethyl-6-(trifluoromethyl)-1H-benzimidazol-2-yl]ethyl}thiophene-3-sulfonamide]  89.6%
4. CCn1c([C@@H](C)NS(=O)(=O)c2ccc(Cl)cc2)nc2ccc(F)c(F)c21 [Example 65, 4-Chloro-N-[(1R)-1-(1-ethyl-6,7-difluoro-1H-benzimidazol-2-yl)ethyl]benzenesulfonamide]  84.2%
5. CCn1c(C(C)NS(=O)(=O)c2ccc(Cl)cc2)nc2cnc(C(F)(F)F)nc21 (stereo not drawn) [Example 96, 4-chloro-N-{1-[9-ethyl-2-(trifluoromethyl)-9H-purin-8-yl]ethyl}benzenesulfonamide]  81.7%
6. CCn1c([C@@H](C)NS(=O)(=O)c2ccc(Cl)cc2)nc2cc(F)c(F)cc21 [Example 20, 4-Chloro-N-[(1R)-1-(1-ethyl-5,6-difluoro-1H-benzimidazol-2-yl)ethyl]benzenesulfonamide]  79.5%
7. CCn1ncc(S(=O)(=O)N[C@H](C)c2nc3ccc(C(F)(F)F)cc3n2CC)c1C [Example 31, 1-Ethyl-N-{(1R)-1-[1-ethyl-6-(trifluoromethyl)-1H-benzimidazol-2-yl]ethyl}-5-mthyl-1H-pyrazole-4-sulfonamide]  78.6%
8. CCn1c([C@@H](C)NS(=O)(=O)c2ccc(Cl)cc2)nc2cc(OC)c(OC)cc21 [Example 61, 4-Chloro-N-[(1R)-1-(1-ethyl-5,6-dimethoxy-1H-benzimidazol-2-yl)ethyl]benzenesulfonamide]  54.9%
9. CCn1c([C@@H](C)NS(=O)(=O)c2ccc(Cl)cc2)nc2cc3c(cc21)OCCO3 [Example 62, 4-Chloro-N-[(1R)-1-(1-ethyl-6,7-dihydro-1H-[1,4]dioxino-[2,3-f]benzimidazol-2-yl)-ethyl]benzenesulfonamide]  52.2%
10. CCn1c([C@@H](C)NS(=O)(=O)c2ccc(Cl)cc2)nc2ccc(C(=O)N(C)C)cc21 (stereo in doubt) [Example 72, 2-(1-{[(4-Chlorophenyl)sulfonyl]amino}-ethyl)-1-ethyl-N,N-dimethyl-1H-benzimidazole-6-carboxamide]  21.7%
